# Test results as given in ChEMBL document CHEMBL5634151, “Anti-adipogenic action of a novel oxazole derivative through activation of AMPK pathway” (Eur J Med Chem, 2023).
# Activity calls are given as the source filed them. The rule behind the calls is not given here.
# Columns and labels:
# 3T3-L1 [1] = assay: Anti-adipogenic activity in MDI-cocktail differentiated mouse 3T3-L1 pre-adipocyte cells assessed as inhibition of adipogenesis at 20 uM by Oil Red O staining based microscopic analysis relative to control; type: functional
# 3T3-L1 [2] = assay: Cytotoxicity against mouse 3T3-L1 pre-adipocyte cells assessed as reduction in cell viability at 20 uM incubated for 48 hrs by MTT assay; type: toxicity, cell-based; conditions: 3t3-l1, 48 h
# 3T3-L1 [3] = assay: Cytotoxicity against mouse 3T3-L1 pre-adipocyte cells assessed as reduction in cell viability >20 uM incubated for 48 hrs by MTT assay; type: toxicity, cell-based; conditions: 3t3-l1, 48 h
# 3T3-L1 [4] = assay: Anti-adipogenic activity in MDI-cocktail differentiated mouse 3T3-L1 pre-adipocyte cells assessed as inhibition of adipogenesis at 30 uM by Oil Red O staining based microscopic analysis; type: functional, cell-based
# 3T3-L1 [5] = assay: Anti-adipogenic activity in MDI-cocktail differentiated mouse 3T3-L1 pre-adipocyte cells assessed as inhibition of adipogenesis by Oil Red O staining based microscopic analysis; type: functional, cell-based
Structure (SMILES),Activity (3T3-L1 [2]),Activity (3T3-L1 [3]),further results
Clc1ccc(C[n+]2cccc(-c3ncc(-c4ccccc4)o3)c2)cc1Cl.[Br-],Non-Toxic,Toxic,inhibition at 20 µM (3T3-L1 [1]): > 70%
COc1ccc(-c2cnc(-c3ccc[n+](Cc4ccc(C(F)(F)F)cc4)c3)o2)cc1.[Br-],–,Toxic,–
Clc1ccc(-c2cnc(-c3ccc[n+](Cc4ccc(Cl)c(Cl)c4)c3)o2)cc1.[Br-],Toxic,Toxic,–
Br.O=[N+]([O-])c1ccc(C[n+]2cccc(-c3ncc(-c4ccccc4)o3)c2)cc1,–,Toxic,–
Clc1ccc(C[n+]2cccc(-c3ncc(-c4ccccc4)o3)c2)cc1.[Br-],–,Toxic,–
COc1ccc(-c2cnc(-c3ccc[n+](Cc4ccc(Cl)cc4)c3)o2)cc1.[Br-],–,Toxic,–
CC(C)=CCC/C(C)=C\C[n+]1cccc(-c2ncc(-c3ccc(Cl)cc3)o2)c1.[Br-],Toxic,Toxic,–
CC(C)=CC[n+]1cccc(-c2ncc(-c3ccc(C)cc3)o2)c1.[Br-],Toxic,Toxic,–
COc1ccc(-c2cnc(-c3ccc[n+](Cc4cccc(C)c4)c3)o2)cc1.[Br-],–,Toxic,–
Cc1ccc(-c2cnc(-c3ccc[n+](Cc4ccc(Cl)c(Cl)c4)c3)o2)cc1.[Br-],Toxic,Toxic,–
COc1ccc(-c2cnc(-c3ccc[n+](Cc4ccc(F)cc4)c3)o2)cc1.[Br-],–,Toxic,–
Br.Cc1ccc(-c2cnc(-c3ccc[n+](Cc4ccc([N+](=O)[O-])cc4)c3)o2)cc1,–,Toxic,–
COc1ccc(-c2cnc(-c3ccc[n+](C/C=C(/C)CCC=C(C)C)c3)o2)cc1.[Br-],Toxic,Toxic,–
CC(C)=CC[n+]1cccc(-c2ncc(-c3ccc(Cl)cc3)o2)c1.[Br-],–,Toxic,–
Cc1cccc(C[n+]2cccc(-c3ncc(-c4ccccc4)o3)c2)c1.[Br-],–,Toxic,–
COc1ccc(-c2cnc(-c3ccc[n+](Cc4ccc(Cl)c(Cl)c4)c3)o2)cc1.[Br-],Non-Toxic,Toxic,inhibition at 20 µM (3T3-L1 [1]): > 70%

Structure (SMILES),Activity (3T3-L1 [2]),Activity (3T3-L1 [3]),further results
FC(F)(F)c1ccc(C[n+]2cccc(-c3ncc(-c4ccccc4)o3)c2)cc1.[Br-],–,Toxic,–
Fc1ccc(C[n+]2cccc(-c3ncc(-c4ccccc4)o3)c2)cc1.[Br-],–,Toxic,–
Fc1ccc(C[n+]2cccc(-c3ncc(-c4ccc(Cl)cc4)o3)c2)cc1.[Br-],–,Toxic,–
Br.O=[N+]([O-])c1ccc(C[n+]2cccc(-c3ncc(-c4ccc(Cl)cc4)o3)c2)cc1,–,Toxic,–
CC(C)=CCC/C(C)=C\C[n+]1cccc(-c2ncc(-c3ccc(C)cc3)o2)c1.[Br-],Toxic,Toxic,–
FC(F)(F)c1ccc(C[n+]2cccc(-c3ncc(-c4ccc(Cl)cc4)o3)c2)cc1.[Br-],–,Toxic,–
COc1ccc(-c2cnc(-c3ccc[n+](CC=C(C)C)c3)o2)cc1.[Br-],–,Toxic,–
CC(C)=CCOc1ccc(-c2cnc(-c3cccnc3)o2)cc1,–,–,Activity (3T3-L1 [4]): Active; IC50 (3T3-L1 [5]; read-out: IC50): 103 µM; IC50 (3T3-L1 [5]; read-out: pIC50 (converted)): 104 µM
Br.COc1ccc(-c2cnc(-c3ccc[n+](Cc4ccc([N+](=O)[O-])cc4)c3)o2)cc1,–,Toxic,–
Cc1cccc(C[n+]2cccc(-c3ncc(-c4ccc(Cl)cc4)o3)c2)c1.[Br-],Non-Toxic,Toxic,inhibition at 20 µM (3T3-L1 [1]): > 70%
Cc1ccc(-c2cnc(-c3ccc[n+](Cc4ccc(Cl)cc4)c3)o2)cc1.[Br-],–,Toxic,–
Cc1ccc(-c2cnc(-c3ccc[n+](Cc4ccc(F)cc4)c3)o2)cc1.[Br-],–,Toxic,–
CC(C)=CC[n+]1cccc(-c2ncc(-c3ccccc3)o2)c1.[Br-],–,Toxic,–
Clc1ccc(C[n+]2cccc(-c3ncc(-c4ccc(Cl)cc4)o3)c2)cc1.[Br-],–,Toxic,–
Cc1ccc(-c2cnc(-c3ccc[n+](Cc4ccc(C(F)(F)F)cc4)c3)o2)cc1.[Br-],Non-Toxic,Toxic,inhibition at 20 µM (3T3-L1 [1]): > 70%
